Each molecule was assayed against T1, human GPR84 (Homo sapiens, UniProt P04899+Q9NQS5) (assay: biochemical). Details: [35S]GTPγS assay; negative log of the IC50 in molar; mean ± SEM.
T1 construct: expressed in transfected cells; host or cells: Flp-In T-REx 293 cells, doxycycline-induced; membrane preparations
Type: biochemical

T1 sequence (Q9NQS5+P04899 fused): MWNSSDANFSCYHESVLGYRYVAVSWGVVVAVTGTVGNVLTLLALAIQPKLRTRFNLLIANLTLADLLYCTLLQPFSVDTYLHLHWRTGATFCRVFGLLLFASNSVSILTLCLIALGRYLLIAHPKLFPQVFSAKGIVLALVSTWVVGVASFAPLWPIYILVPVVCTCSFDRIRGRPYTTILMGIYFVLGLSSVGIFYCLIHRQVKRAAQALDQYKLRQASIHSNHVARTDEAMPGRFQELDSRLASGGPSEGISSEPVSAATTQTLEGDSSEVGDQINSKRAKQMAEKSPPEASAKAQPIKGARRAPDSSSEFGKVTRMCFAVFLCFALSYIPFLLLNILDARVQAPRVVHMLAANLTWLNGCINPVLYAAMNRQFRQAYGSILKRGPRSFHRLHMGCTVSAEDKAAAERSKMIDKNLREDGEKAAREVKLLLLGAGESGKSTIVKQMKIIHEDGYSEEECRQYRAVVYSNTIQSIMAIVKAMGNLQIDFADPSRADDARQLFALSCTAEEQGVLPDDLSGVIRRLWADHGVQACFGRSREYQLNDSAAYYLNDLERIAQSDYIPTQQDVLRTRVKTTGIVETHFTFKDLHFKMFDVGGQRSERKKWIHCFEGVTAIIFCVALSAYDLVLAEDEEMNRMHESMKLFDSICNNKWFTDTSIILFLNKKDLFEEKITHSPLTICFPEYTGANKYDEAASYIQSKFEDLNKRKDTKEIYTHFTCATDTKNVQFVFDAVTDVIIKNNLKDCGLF

In order of rising “GTPγS (pIC50)” value:
1. Cc1cc(Cc2nnc(-c3ccccc3)c(-c3ccccc3)n2)n[nH]1 [Compound 23, 3-((5-Methyl-1H-pyrazol-3-yl)methyl)-5,6-diphenyl-1,2,4-triazine]  4.97 ± 0.23
2. O=C(O)c1cccc(-c2nc(Cc3c[nH]c4ccccc34)nnc2-c2ccccc2)c1 [Compound 55, 3-(3-((1H-Indol-3-yl)methyl)-6-phenyl-1,2,4-triazin-5-yl)benzoic Acid]  4.99 ± 0.32
3. c1ccc(-c2nnc(CCc3cccnc3)nc2-c2ccccc2)cc1 [Compound 22, 5,6-Diphenyl-3-(2-(pyridin-3-yl)ethyl)-1,2,4-triazine]  5.00 ± 0.17
4. CCCCCc1nnc(-c2ccccc2)c(-c2ccccc2)n1 [Compound 21, 3-Pentyl-5,6-diphenyl-1,2,4-triazine]  5.12 ± 0.05
5. CC(C)c1nnc(Cc2c[nH]c3ccccc23)nc1C(C)C [Compound 9, 3-((5,6-Diisopropyl-1,2,4-triazin-3-yl)methyl)-1H-indole]  5.38 ± 0.05
6. c1ccc(-c2nnc(Cc3c[nH]c4cnccc34)nc2-c2cnccn2)cc1 [Compound 59, 3-((6-Phenyl-5-(pyrazin-2-yl)-1,2,4-triazin-3-yl)methyl)-1H-pyrrolo[2,3-c]pyridine]  5.38 ± 0.12
7. c1ccc(-c2nnc(Cc3cnc4ccccn34)nc2-c2ccccc2)cc1 [Compound 20, 3-((5,6-Diphenyl-1,2,4-triazin-3-yl)methyl)imidazo[1,2-a]pyridine]  5.44 ± 0.09
8. c1ccc(-c2nnc(NCc3cccnc3)nc2-c2ccccc2)cc1 [Compound 24, 5,6-Diphenyl-N-(pyridin-3-ylmethyl)-1,2,4-triazin-3-amine]  5.47 ± 0.05
9. FC(F)(F)Oc1ccccc1-c1cnc(Cc2c[nH]c3ccccc23)nn1 [Compound 27, 3-((6-(2-(Trifluoromethoxy)phenyl)-1,2,4-triazin-3-yl)methyl)-1H-indole]  5.59 ± 0.13
10. c1ccc(-c2nnc(Cc3c[nH]c4ccccc34)nc2-c2ccccn2)nc1 [Compound 8, 3-((5,6-Di(pyridin-2-yl)-1,2,4-triazin-3-yl)methyl)-1H-indole]  5.70 ± 0.21
11. c1ccc(-c2nnc(Cc3c[nH]c4cnccc34)nc2-c2ccnnc2)cc1 [Compound 61, 3-((6-Phenyl-5-(pyridazin-4-yl)-1,2,4-triazin-3-yl)methyl)-1H-pyrrolo[2,3-c]pyridine]  5.84 ± 0.10
12. c1ccc(-c2nc(Cc3c[nH]c4cnccc34)nnc2-c2cnccn2)cc1 [Compound 60, 3-((5-Phenyl-6-(pyrazin-2-yl)-1,2,4-triazin-3-yl)methyl)-1H-pyrrolo[2,3-c]pyridine]  5.91± 0.06
13. CS(=O)(=O)c1ccc(-c2nnc(Cc3c[nH]c4ccccc34)nc2-c2ccccc2)cc1 [Compound 36, 3-((6-(4-(Methylsulfonyl)phenyl)-5-phenyl-1,2,4-triazin-3-yl)methyl)-1H-indole]  6.18 ± 0.04
14. CN(C)Cc1ccc(-c2nc(Cc3c[nH]c4ccccc34)nnc2-c2ccccc2)cc1 [Compound 43, 1-(4-(3-((1H-Indol-3-yl)methyl)-6-phenyl-1,2,4-triazin-5-yl)phenyl)-N,N-dimethylmethanamine]  6.20 ± 0.05
15. c1ccc(-c2nc(Cc3c[nH]c4cnccc34)nnc2-c2ccnnc2)cc1 [Compound 62, 3-((5-Phenyl-6-(pyridazin-4-yl)-1,2,4-triazin-3-yl)methyl)-1H-pyrrolo[2,3-c]pyridine]  6.21 ± 0.04
16. CNS(=O)(=O)c1ccc(-c2nc(Cc3c[nH]c4ccccc34)nnc2-c2ccccc2)cc1 [Compound 33, 4-(3-((1H-Indol-3-yl)methyl)-6-phenyl-1,2,4-triazin-5-yl)-N-methylbenzenesulfonamide]  6.49 ± 0.05
17. 3-((5-Phenyl-6-(pyrimidin-2-yl)-1,2,4-triazin-3-yl)methyl)-1H-indole or 3-((6-phenyl-5-(pyrimidin-2-yl)-1,2,4-triazin-3-yl)methyl)-1H-indole [Compound 32]  6.58 ± 0.08
18. Fc1ccc2c(Cc3nnc(-c4ccccc4)c(-c4ccccc4)n3)c[nH]c2c1 [Compound 15, 3-((5,6-Diphenyl-1,2,4-triazin-3-yl)methyl)-6-fluoro-1H-indole]  6.65 ± 0.03
19. COC(=O)c1ccc(-c2nnc(Cc3c[nH]c4ccccc34)nc2-c2ccc(C(=O)OC)cc2)cc1 [Compound 10, Methyl 4-[3-(1H-Indol-3-ylmethyl)-6-(4-methoxycarbonylphenyl)-1,2,4-triazin-5-yl]benzoate]  6.67 ± 0.08
20. COc1ccc(-c2nnc(Cc3n[nH]c4ccccc34)nc2-c2ccc(OC)cc2)cc1 [Compound 14, 3-((5,6-Bis(4-methoxyphenyl)-1,2,4-triazin-3-yl)methyl)-1H-indazole]  6.67 ± 0.03
21. CN(C)Cc1ccc(-c2nnc(Cc3c[nH]c4ccccc34)nc2-c2ccccc2)cc1 [Compound 44, 1-(4-(3-((1H-Indol-3-yl)methyl)-5-phenyl-1,2,4-triazin-6-yl)phenyl)-N,N-dimethylmethanamine]  6.68 ± 0.05
22. CS(=O)(=O)NCc1ccc(-c2nc(Cc3c[nH]c4ccccc34)nnc2-c2ccccc2)cc1 [Compound 47, N-(4-(3-((1H-indol-3-yl)methyl)-6-phenyl-1,2,4-triazin-5-yl)benzyl)methanesulfonamide]  6.72 ± 0.06
23. COC(=O)c1ccc(-c2nc(Cc3c[nH]c4ccccc34)nnc2-c2ccccc2)cc1 [Compound 49, Methyl 4-(3-((1H-Indol-3-yl)methyl)-6-phenyl-1,2,4-triazin-5-yl)benzoate]  6.74 ± 0.05
24. c1ccc(-c2nc(Cc3c[nH]c4ccccc34)nnc2-c2cccnn2)cc1 [Compound 31, 3-((5-Phenyl-6-(pyridazin-3-yl)-1,2,4-triazin-3-yl)methyl)-1H-indole]  6.85 ± 0.03
25. COc1ccc(-c2nnc(Cc3c[nH]c4ccc(F)cc34)nc2-c2ccc(OC)cc2)cc1 [Compound 12, 3-((5,6-Bis(4-methoxyphenyl)-1,2,4-triazin-3-yl)methyl)-5-fluoro-1H-indole]  6.92 ± 0.07
26. CC(=O)NCc1ccc(-c2nc(Cc3c[nH]c4ccccc34)nnc2-c2ccccc2)cc1 [Compound 45, N-(4-(3-((1H-Indol-3-yl)methyl)-6-phenyl-1,2,4-triazin-5-yl)benzyl)acetamide]  6.93 ± 0.06
27. O=C(O)c1ccc(-c2nnc(Cc3c[nH]c4ccccc34)nc2-c2ccccc2)cc1 [Compound 52, 4-(3-((1H-Indol-3-yl)methyl)-5-phenyl-1,2,4-triazin-6-yl)benzoic Acid]  7.06 ± 0.22
28. OCc1ccc(-c2nc(Cc3c[nH]c4ccccc34)nnc2-c2ccccc2)cc1 [Compound 39, (4-(3-((1H-Indol-3-yl)methyl)-6-phenyl-1,2,4-triazin-5-yl)phenyl)methanol]  7.16 ± 0.04
29. c1ccc(-c2nnc(Cc3c[nH]c4ccccc34)nc2-c2ccc(CN3CCOCC3)cc2)cc1 [Compound 41, 4-(4-(3-((1H-Indol-3-yl)methyl)-6-phenyl-1,2,4-triazin-5-yl)benzyl)morpholine]  7.51 ± 0.28
30. Brc1ccc(-c2nnc(Cc3c[nH]c4ccccc34)nc2-c2ccc(Br)cc2)cc1 [Compound 7, 3-((5,6-Bis(4-bromophenyl)-1,2,4-triazin-3-yl)methyl)-1H-indole]  7.60 ± 0.02
31. CS(=O)(=O)NCc1ccc(-c2nnc(Cc3c[nH]c4ccccc34)nc2-c2ccccc2)cc1 [Compound 48, N-(4-(3-((1H-Indol-3-yl)methyl)-5-phenyl-1,2,4-triazin-6-yl)benzyl)methanesulfonamide]  7.61 ± 0.06
32. c1csc(-c2nnc(Cc3c[nH]c4ccccc34)nc2-c2cccs2)c1 [Compound 11, 3-((5,6-Di(thiophen-2-yl)-1,2,4-triazin-3-yl)methyl)-1H-indole]  7.62 ± 0.05
33. OCc1ccc(-c2nnc(Cc3c[nH]c4ccccc34)nc2-c2ccccc2)cc1 [Compound 40, (4-(3-((1H-Indol-3-yl)methyl)-5-phenyl-1,2,4-triazin-6-yl)phenyl)methanol]  7.76 ± 0.06
34. Fc1ccc(-c2nnc(Cc3c[nH]c4ccccc34)nc2-c2ccc(F)cc2)cc1 [Compound 5, 3-((5,6-Bis(4-fluorophenyl)-1,2,4-triazin-3-yl)methyl)-1H-indole]  7.81 ± 0.04
35. CC(=O)NCc1ccc(-c2nnc(Cc3c[nH]c4ccccc34)nc2-c2ccccc2)cc1 [Compound 46, N-(4-(3-((1H-Indol-3-yl)methyl)-5-phenyl-1,2,4-triazin-6-yl)benzyl)acetamide]  7.98 ± 0.06
36. CC(=O)OCc1ccc(-c2nnc(Cc3c[nH]c4ccccc34)nc2-c2ccccc2)cc1 [Compound 38, 4-(3-((1H-Indol-3-yl)methyl)-5-phenyl-1,2,4-triazin-6-yl)benzyl Acetate]  8.06 ± 0.27
37. CC(=O)OCc1ccc(-c2nc(Cc3c[nH]c4ccccc34)nnc2-c2ccccc2)cc1 [Compound 37, 4-(3-((1H-Indol-3-yl)methyl)-6-phenyl-1,2,4-triazin-5-yl)benzyl Acetate]  8.30 ± 0.35

With COc1ccc(-c2nnc(Cc3cn(C)c4ccccc34)nc2-c2ccc(OC)cc2)cc1 [Compound 13, 3-((5,6-Bis(4-methoxyphenyl)-1,2,4-triazin-3-yl)methyl)-1-methyl-1H-indole] the “GTPγS (pIC50)” value was under 4.70.
Cc1ccc2c(Cc3nnc(-c4ccccc4)c(-c4ccccc4)n3)c[nH]c2c1 [Compound 16, 3-((5,6-Diphenyl-1,2,4-triazin-3-yl)methyl)-6-methyl-1H-indole] was tested, and the “GTPγS (pIC50)” value was under 4.70.
In the case of Cc1cc(Nc2nnc(-c3ccccc3)c(-c3ccccc3)n2)n[nH]1 [Compound 25, N-(5-Methyl-1H-pyrazol-3-yl)-5,6-diphenyl-1,2,4-triazin-3-amine], the “GTPγS (pIC50)” value is reported as under 4.70.
FC(F)(F)Oc1ccccc1-c1cnnc(Cc2c[nH]c3ccccc23)n1 [Compound 26, 3-((5-(2-(Trifluoromethoxy)phenyl)-1,2,4-triazin-3-yl)methyl)-1H-indole] was tested, and the “GTPγS (pIC50)” value was under 4.70.
